Data: PMC4330097, “Competitive Binding of a Benzimidazole to the Histone-Binding Pocket of the Pygo PHD Finger” (ACS Chemical Biology, 2014)
No end group written: not given here. Me2 = dimethyl on the lysine side chain (dimethyllysine)

Columns and labels:
[1] = molecular target: T1, Pygo2 PHD finger (PHD–HD1 complex) (Homo sapiens, UniProt Q9BRQ0); test: biochemical; set-up: PHD–HD1 complex; with B9L HD1 (BCL9L); 15N-HSQC NMR titration of 15N-labelled PHD-HD1; Kd from chemical shift perturbations
T1 sequence (Q9BRQ0 327-387): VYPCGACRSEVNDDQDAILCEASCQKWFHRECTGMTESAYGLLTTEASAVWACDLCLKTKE
T1 sequence (Q86UU0 235-263 partner): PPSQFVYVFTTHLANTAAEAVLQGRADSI
Text: […]. […] Nevertheless, we asked whether CF16 could compete with a native histone H3 tail peptide for binding to the PHD–HD1 complex.

[2] = molecular target: T1, Pygo2 PHD finger (PHD–HD1 complex); test: HSQC NMR titration, intermolecular NOEs, NMR competition with H3 peptide; assay type: binding; set-up: with B9L HD1 (BCL9L)
Text: HSQC NMR titration, intermolecular NOEs, NMR competition with H3 peptide on Pygo2 PHD finger (PHD–HD1 complex) | estimated affinities of CF16 and CF18 for the K4me pocket appear to be lower

[3] = molecular target: T1, Pygo2 PHD finger (PHD–HD1 complex); test: HSQC NMR chemical shift perturbation; assay type: binding; set-up: PHD–HD1 complex; with B9L HD1 (BCL9L)
[4] = molecular target: T1, Pygo2 PHD finger (PHD–HD1 complex); test: HSQC NMR titration, intermolecular NOEs; assay type: binding; set-up: with B9L HD1 (BCL9L)
[5] = molecular target: T2, histone H3 tail pentapeptide ARTKme2Q (Homo sapiens); test: NMR HSQC titration
T2 chain: ARTK(Me2)Q

`Nc1nc2cc3c(cc2s1)OCCO3` [CF7] was tested, and the Kd [1] was 2.9 mM.

For `CCn1c(N)nc2ccccc21` [CF16], the Kd [2] was ~7.3 mM.

With `CCn1c(NCCN2CCOCC2)nc2ccccc21` [CF17] the “HSQC NMR chemical shift perturbation” value [3] was “CF14, CF16, and CF17 produced altogether distinct CSP patterns”.

In the case of `CN(C)CCn1c(N)nc2ccccc21` [CF18], the Kd [4] is reported as ~14.7 mM.

B1: Pygo2 PHD–B9L HD1 complex 327-387+235-263 (protein)
chain 1: AASAPPPPDKLEGGGGPAPPPAPPSTGRKQGKAGLQMKSPEKKRRKSNTQGPAYSHLTEFAPPPTPMVDHLVASNPFEDDFGAPKVGVAAPPFLGSPVPFGGFRVQGGMAGQVPPGYSTGGGGGPQPLRRQPPPFPPNPMGPAFNMPPQGPGYPPPGNMNFPSQPFNQPLGQNFSPPSGQMMPGPVGGFGPMISPTMGQPPRAELGPPSLSQRFAQPGAPFGPSPLQRPGQGLPSLPPNTSPFPGPDPGFPGPGGEDGGKPLNPPASTAFPQEPHSGSPAAAVNGNQPSFPPNSSGRGGGTPDANSLAPPGKAGGGSGPQPPPGLVYPCGACRSEVNDDQDAILCEASCQKWFHRECTGMTESAYGLLTTEASAVWACDLCLKTKEIQSVYIREGMGQLVAANDG
chain 2: MRILANKTRLPHPRRREAPGSPPLSPRGHCPPAPAKPMHPENKLTNHGKTGNGGAQSQHQNVNQGPTCNVGSKGVGAGNHGAKANQISPSNSSLKNPQAGVPPFSSLKGKVKRDRSVSVDSGEQREAGTPSLDSEAKEVAPRSKRRCVLERKQPYSGDEWCSGPDSEEDDKPIGATHNCNVADPAMAAPQLGPGQTTQLPLSESSVPGAPHGPPPGLRPDAPGGGGGGGGVPGKPPSQFVYVFTTHLANTAAEAVLQGRADSILAYHQQNVPRAKLDQAPKVPPTPEPLPLSTPSAGTPQSQPPPLPPPPPPAPGSAPPALPPEGPPEDSSQDLAPNSVGAASTGGGTGGTHPNTPTATTANNPLPPGGDPSSAPGPALLGEAAAPGNGQRSLVGSEGLSKEQLEHRERSLQTLRDIERLLLRSGETEPFLKGPPGGAGEGGPPAQAPPPPQQPPTAPPSGLKKYEEPLQSMISQTQSLGGPPLEHEVPGHPPGGDMGQQMNMMIQRLGQDSLTPEQVAWRKLQEEYYEEKRRKEEQIGLHGSRPLQDMMGMGGMMVRGPPPPYHSKPGDQWPPGMGAQLRGPMDVQDPMQLRGGPPFPGPRFPGNQIQRVPGFGGMQSMPMEVPMNAMQRPVRPGMGWTEDLPPMGGPSNFAQNTMPYPGGQGEAERFMTPRVREELLRHQLLEKRSMGMQRPLGMAGSGMGQSMEMERMMQAHRQMDPAMFPGQMAGGEGLAGTPMGMEFGGGRGLLSPPMGQSGLREVDPPMGPGNLNMNMNVNMNMNMNLNVQMTPQQQMLMSQKMRGPGDLMGPQGLSPEEMARVRAQNSSGVMGGPQKMLMPSQFPNQGQQGFSGGQGPYQAMSQDMGNTQDMFSPDQSSMPMSNVGTTRLSHMPLPPASNPPGTVHSAPNRGLGRRPSDLTISINQMGSPGMGHLKSPTLSQVHSPLVTSPSANLKSPQTPSQMVPLPSANPPGPLKSPQVLGSSLSVRSPTGSPSRLKSPSMAVPSPGWVASPKTAMPSPGVSQNKQPPLNMNSSTTLSNMEQGTLPPSGPRSSSSAPPANPPSGLMNPSLPFTSSPDPTPSQNPLSLMMTQMSKYAMPSSTPLYHNAIKTIATSDDELLPDRPLLPPPPPPQGSGPGISNSQPSQMHLNSAAAQSPMGMNLPGQQPLSHEPPPAMLPSPTPLGSNIPLHPNAQGTGGPPQNSMMMAPGGPDSLNAPCGPVPSSSQMMPFPPRLQQPHGAMAPTGGGGGGPGLQQHYPSGMALPPEDLPNQPPGPMPPQQHLMGKAMAGRMGDAYPPGVLPGVASVLNDPELSEVIRPTPTGIPEFDLSRIIPSEKPSSTLQYFPKSENQPPKAQPPNLHLMNLQNMMAEQTPSRPPNLPGQQGVQRGLNMSMCHPGQMSLLGRTGVPPQQGMVPHGLHQGVMSPPQGLMTQQNFMLMKQRGVGGEVYSQPPHMLSPQGSLMGPPPQQNLMVSHPLRQRSVSLDSQMGYLPAPGGMANLPF
With B1 the Kd [5] was 0.528 mM.
